Experimental data taken from US20240245670A1, “DOSING REGIMEN AND PHARMACEUTICAL COMBINATION COMPRISING 3-(1-OXOISOINDOLIN-2-YL)PIPERIDINE-2,6-DIONE DERIVATIVES” (Novartis AG, priority 2018, published 2024).

Key:
[1] = PK after repeated daily oral dosing in immunized cynomolgus monkeys (Table 15); assay type: in vivo, cynomolgus monkey; settings: for AUC0-24 (unbound) / AUC0-24/D (unbound) / Cmax (unbound) / Cmax/D (unbound): cynomolgus monkey
Protocol: (§1) The PK/PD relationship of I-57 was further examined in cynomolgus monkeys after repeated daily oral doses of 0.1 and 3 mg/kg. In this study, a cohort of animals were initially immunized with an antigen-adjuvant mixture (KLH/Squalene). The experiment was designed to assess the effect of I-57 exposure, and the resulting IKZF2 degradation, on immune response during immunization to test the hypothesis that IKZF2 degradation would result in increased proliferation of stimulated T-cells. In the experiment, daily I-57 oral treatment was initiated 5 days after immunization. An immunization booster dose was administered on day 15. I-57 plasma concentration and IKZF2 expression (as determined by flow cytometry) in FOXP3+ T cells from PBMCs were determined (FIG. 9A and FIG. 9B).
Exposure levels for 3 mg/kg in cynomolgus monkeys are anticipated to correspond to ˜100 mg QD in humans.

[2] = ECG (QTc interval) in single dose and 4-week GLP repeat dose study; assay type: in vivo, monkey
Protocol: The risk of possible QTc interval prolongation at the starting dose is therefore considered low. QT prolongation may become clinically significant during escalation but are not anticipated to be dose limiting until doses at or above 640 mg. Monitoring and other measures to mitigate potential risk of arrhythmia is addressed in Example 3 below.

human recombinant CYPs = assay: Assessment of enzymes involved in oxidative metabolism using human recombinant CYPs in vitro; assay type: in vitro ADME; settings: preliminary assessment
Protocol: In vivo in the dog, very minor amounts of the N-dealkylation product and products derived from hydrolysis of the glutarimide moiety were detected in plasma. While the contribution of CYP-mediated oxidative metabolism to systemic clearance is unknown, a preliminary assessment of the enzymes involved was conducted using human recombinant CYPs in vitro.

TMEM97 = target: T1, TMEM97 (Homo sapiens, UniProt Q5BJF2); assay: Whole cell proteomic analysis in 293T cells; assay type: cell-based; settings: nearly 8000 proteins identified
T1 construct: endogenous in cells; host or cells: 293T
T1 sequence (Q5BJF2 whole entry): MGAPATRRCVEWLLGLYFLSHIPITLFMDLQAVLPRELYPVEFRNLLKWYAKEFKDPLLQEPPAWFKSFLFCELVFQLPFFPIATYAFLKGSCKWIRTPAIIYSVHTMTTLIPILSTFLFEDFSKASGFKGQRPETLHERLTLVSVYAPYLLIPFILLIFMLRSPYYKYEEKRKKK
Protocol: Other potential degradation targets of I-57 were evaluated in 293T cells using whole cell proteomic analysis. […] Subsequent analyses have confirmed that FIZ1 is degraded by about 50% at a 10 μM concentration of I-57 ([I-57 Investigator's Brochure]). […] FIZ1 is expressed in the neural retina where it transcriptionally represses the differentiation of photoreceptors. FIZ1 is also expressed in non-ocular tissues with unknown function.

[3] = test system: isolated primary human T cells; assay: In vitro T cell dysfunction/exhaustion assay by sequential TCR stimulation (FIG. 2D); assay type: cell-based; settings: Teff cells; 2.5 nM, 25 nM and 2.5 μM
Text: FIG. 2C is a bar graph showing the suppressive potency of Treg cells expanded in the presence of Compound I-57.
Although the specific transcriptional targets of IKZF2 remain to be defined, IKZF2 binds to and represses transcription from the IL-2 promoter region (Baine 2013). […] Finally, an in vitro assay recapitulating hallmarks of T cell dysfunction/exhaustion, by sequential TCR stimulation of isolated primary human T cells, was used to test the hypothesis that […] would rescue the exhausted phenotype and enhance Teff cell activity. […] In addition to IKZF1, other known cereblon substrates including translation termination factor G1 to S phase transition 1 (GSPT1) are not degraded by I-57 (FIG. 1).

[4] = test system: IKZF2 expression in FOXP3+ T cells from PBMCs; assay: PD after repeated daily oral dosing in immunized cynomolgus monkeys: IKZF2 by flow cytometry (FIG. 9A); assay type: in vivo, cynomolgus monkey
Protocol: FIG. 9A. is a graph showing the degradation of IKZF2 measured in FOXP3+ T cells upon repeated daily dosing in immunized cynomolgus monkeys treated daily with Compound I-57. Compound treatment was initiated at day 5.
as §1
Consistent with previous findings, IKZF2 degradation was detected 24 h after the first dose (at day 6) (FIG. 9A and FIG. 9B). The levels of IKZF2 decreased further upon repeat dosing and reached a steady-state level approximately 72 h after initiation of treatment. This level of degradation was maintained throughout the remainder of the treatment (24 days).

[5] = In vivo non-clinical PK / high dose PK and toxicology exposure; set-up: species or system cynomolgus monkey; settings: monkey
Protocol: The in vivo non-clinical PK profile of I-57 was investigated in mouse, rat, dog and cynomolgus monkey using I-57 free base. […] After p.o. administration, the absorption of I-57 was rapid with peak blood concentration (Tmax) occurring between 1 and 4 hours. […] In high dose PK and toxicology studies with I-57 the exposures in mouse, rat and monkey increased with dose.

[6] = Day 5, Group 2 (only I-57), 0.1 mg/kg/day oral
[7] = Day 5, Group 4 (I-57 + KLH + adjuvant), 0.1 mg/kg/day oral
[8] = Day 5, Group 5 (I-57 + KLH + adjuvant), 3 mg/kg/day oral
[9] = Day 29, Group 2 (only I-57), 0.1 mg/kg/day oral
[10] = Day 29, Group 4 (I-57 + KLH + adjuvant), 0.1 mg/kg/day oral
[11] = Day 29, Group 5 (I-57 + KLH + adjuvant), 3 mg/kg/day oral

With O=C1CCC(N2Cc3cc(C4CCN(Cc5ccccc5)CC4)ccc3C2=O)C(=O)N1 (centres unmarked) [Compound I-57, 3-(5-(1-benzylpiperidin-4-yl)-1-oxoisoindolin-2-yl)piperidine-2,6-dione] as the compound, how does the “AUC0-24 (unbound)” value [1, 6] read?
The value was 56.8 ng·h/mL.

What about the “AUC0-24/D (unbound)” value [1, 6] of the same compound?
The value was 567 (ng · h/mL)/(mg/kg).

And the “Cmax (unbound)” value [1, 6]?
The value was 7.10 ng/mL.

What about the “Cmax/D (unbound)” value [1, 6] of the same compound?
The value was 71.0 (ng/mL)/(mg/kg).

And the “AUC0-24 (unbound)” value [1, 7]?
The value was 63.5 ng·h/mL.

What about the “AUC0-24/D (unbound)” value [1, 7] of the same compound?
Its value is 634 (ng · h/mL)/(mg/kg).

And the “Cmax (unbound)” value [1, 7]?
Its value is 11.0 ng/mL.

What about the “Cmax/D (unbound)” value [1, 7] of the same compound?
The value was 110 (ng/mL)/(mg/kg).

What about the “AUC0-24 (unbound)” value [1, 8] of the same compound?
Its value is 2840 ng·h/mL.

What about the “AUC0-24/D (unbound)” value [1, 8] of the same compound?
The value was 946 (ng · h/mL)/(mg/kg).

What about the “Cmax (unbound)” value [1, 8] of the same compound?
The value was 523 ng/mL.

And the “Cmax/D (unbound)” value [1, 8]?
Its value is 175 (ng/mL)/(mg/kg).

What about the “AUC0-24 (unbound)” value [1, 9] of the same compound?
Its value is 78.1 ng·h/mL.

What about the “AUC0-24/D (unbound)” value [1, 9] of the same compound?
Its value is 782 (ng · h/mL)/(mg/kg).

What about the “Cmax (unbound)” value [1, 9] of the same compound?
The value was 13.1 ng/mL.

And the “Cmax/D (unbound)” value [1, 9]?
The value was 131 (ng/mL)/(mg/kg).

What about the “AUC0-24 (unbound)” value [1, 10] of the same compound?
The value was 96.4 ng·h/mL.

And the “AUC0-24/D (unbound)” value [1, 10]?
Its value is 965 (ng · h/mL)/(mg/kg).

And the “Cmax (unbound)” value [1, 10]?
The value was 18.0 ng/mL.

What about the “Cmax/D (unbound)” value [1, 10] of the same compound?
The value was 180 (ng/mL)/(mg/kg).

And the “AUC0-24 (unbound)” value [1, 11]?
The value was 3460 ng·h/mL.

And the “AUC0-24/D (unbound)” value [1, 11]?
Its value is 1150 (ng · h/mL)/(mg/kg).

And the “Cmax (unbound)” value [1, 11]?
The value was 504 ng/mL.

What about the “Cmax/D (unbound)” value [1, 11] of the same compound?
Its value is 169 (ng/mL)/(mg/kg).

What about the “human dose anticipated to correspond to exposure levels” value ([1]; exposure levels for 3 mg/kg in cynomolgus monkeys) of the same compound?
Its value is roughly 100 mg QD.

And the “free Cmax in monkeys relative to free Cmax predicted at the clinical starting dose of 20 mg” value ([2]; monkeys at 3 mg/kg)?
Its value is 40 times.

And the QT effects ([2]; monkeys, 3 mg/kg)?
The QT effects was “no QT effects”.

What about the “time of highest magnitude of QTc effect” value ([2]; monkeys, coinciding with Tmax) of the same compound?
The value was 0.5 to 5.5 h.

And the “enzyme primarily mediating oxidative metabolism” value (human recombinant CYPs)?
The value was “CYP3A4”.

What about the “TMEM97 degradation (proteomics)” value (TMEM97) of the same compound?
The value was “degraded”.

And the “IFNγ production by IKZF2 positive cells” value [3]?
Its value is “concomitant increase”.

And the “time to steady-state level of IKZF2” value ([4]; after initiation of treatment, repeat daily dosing)?
Its value is “approximately 72 h”.

What about the “time at which IKZF2 degradation was detected” value ([4]; after the first dose (at day 6), daily oral 0.1 and 3 mg/kg) of the same compound?
The value was 24 h.

What about the “increase in AUC with dose” value ([5]; above 100 mg/kg) of the same compound?
Its value is “less than dose proportional”.

What about the “increase in AUC with dose” value ([5]; between 10 mg/kg and 100 mg/kg) of the same compound?
Its value is “slightly over-proportional”.
